Values joined by “and” are separate entries in the source; they are usually repeats but may differ in a detail not shown here. Equal entries are not always repeated. Where two headings read alike, the source gives them in different places.
Tests used:
Type in all cases: cell-based
[1] = target: T1, protein kinases (human kinome) (Homo sapiens, UniProt O94768); conditions: for logFC STK17B (O94768): direction down; for logFC: STK17B (O94768)
T1 sequence (O94768 1-372): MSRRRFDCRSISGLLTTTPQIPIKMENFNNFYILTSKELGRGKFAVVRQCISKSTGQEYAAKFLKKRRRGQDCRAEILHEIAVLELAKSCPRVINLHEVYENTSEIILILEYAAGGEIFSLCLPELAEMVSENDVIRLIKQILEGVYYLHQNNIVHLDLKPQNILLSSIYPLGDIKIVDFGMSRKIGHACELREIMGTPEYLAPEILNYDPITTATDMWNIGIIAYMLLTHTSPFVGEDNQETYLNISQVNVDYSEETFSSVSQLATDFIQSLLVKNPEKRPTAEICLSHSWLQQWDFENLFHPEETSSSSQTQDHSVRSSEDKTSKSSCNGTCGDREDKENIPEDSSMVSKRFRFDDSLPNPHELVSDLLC

[2] = target: T2, protein kinases (human kinome) (Homo sapiens, UniProt P33981); conditions: for logFC TTK: Accession P33981
T2 sequence (P33981 1-857): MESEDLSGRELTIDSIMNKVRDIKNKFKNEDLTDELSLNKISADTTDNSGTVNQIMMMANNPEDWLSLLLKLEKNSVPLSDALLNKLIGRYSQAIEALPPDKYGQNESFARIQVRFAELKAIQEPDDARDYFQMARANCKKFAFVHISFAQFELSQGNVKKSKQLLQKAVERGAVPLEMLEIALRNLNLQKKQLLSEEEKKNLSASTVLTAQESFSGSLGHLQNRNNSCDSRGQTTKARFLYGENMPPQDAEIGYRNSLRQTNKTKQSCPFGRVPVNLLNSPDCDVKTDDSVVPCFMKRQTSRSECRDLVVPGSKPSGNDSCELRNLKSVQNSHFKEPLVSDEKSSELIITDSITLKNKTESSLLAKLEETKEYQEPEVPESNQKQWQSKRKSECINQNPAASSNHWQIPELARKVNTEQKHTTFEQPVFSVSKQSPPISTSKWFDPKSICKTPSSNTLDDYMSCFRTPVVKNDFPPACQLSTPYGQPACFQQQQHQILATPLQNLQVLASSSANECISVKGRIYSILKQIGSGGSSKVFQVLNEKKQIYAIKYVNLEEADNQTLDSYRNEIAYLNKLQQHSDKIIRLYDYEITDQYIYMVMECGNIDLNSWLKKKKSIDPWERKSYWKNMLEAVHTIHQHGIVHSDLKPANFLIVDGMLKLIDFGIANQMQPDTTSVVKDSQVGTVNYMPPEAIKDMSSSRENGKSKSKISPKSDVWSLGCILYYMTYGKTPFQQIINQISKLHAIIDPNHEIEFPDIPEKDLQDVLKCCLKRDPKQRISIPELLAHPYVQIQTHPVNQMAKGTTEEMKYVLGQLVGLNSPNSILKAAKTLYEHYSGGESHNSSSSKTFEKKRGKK

[3] = target: T3, protein kinases (human kinome) (Homo sapiens, UniProt Q9UEE5); conditions: STK17A Q9UEE5
T3 sequence (Q9UEE5 1-414): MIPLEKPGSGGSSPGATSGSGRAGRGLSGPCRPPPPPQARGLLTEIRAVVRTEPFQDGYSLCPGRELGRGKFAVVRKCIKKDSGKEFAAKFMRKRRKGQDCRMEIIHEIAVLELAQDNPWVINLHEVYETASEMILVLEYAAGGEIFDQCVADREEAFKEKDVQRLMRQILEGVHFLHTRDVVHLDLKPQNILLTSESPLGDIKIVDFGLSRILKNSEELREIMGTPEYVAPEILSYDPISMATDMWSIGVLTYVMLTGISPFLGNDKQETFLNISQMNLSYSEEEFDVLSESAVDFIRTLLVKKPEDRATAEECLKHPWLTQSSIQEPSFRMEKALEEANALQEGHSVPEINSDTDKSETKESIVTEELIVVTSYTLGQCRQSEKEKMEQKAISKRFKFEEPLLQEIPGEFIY

[4] = target: protein kinases (human kinome) (Homo sapiens, UniProt Q14289); conditions: for logFC: PTK2B (Q14289-1) protein abundance, degrader vs DMSO, down; for logFC PTK2B: accession Q14289-1, direction of change down
[5] = target: protein kinases (human kinome) (Homo sapiens, UniProt Q9HBH9); conditions: for logFC MKNK2 (Q9HBH9-1): direction down; for logFC: MKNK2 (Q9HBH9-1)
[6] = target: protein kinases (human kinome) (Homo sapiens, UniProt Q9NYV4)
[7] = target: protein kinases (human kinome) (Homo sapiens, UniProt P50613); conditions: CDK7 P50613
[8] = target: protein kinases (human kinome) (Homo sapiens, UniProt Q07912); conditions: for logFC TNK2 (Q07912-1): direction down; for logFC TNK2: TNK2 (Q07912-1)
Chain of protein kinases (human kinome) (Homo sapiens, UniProt Q07912) (Q07912 whole entry): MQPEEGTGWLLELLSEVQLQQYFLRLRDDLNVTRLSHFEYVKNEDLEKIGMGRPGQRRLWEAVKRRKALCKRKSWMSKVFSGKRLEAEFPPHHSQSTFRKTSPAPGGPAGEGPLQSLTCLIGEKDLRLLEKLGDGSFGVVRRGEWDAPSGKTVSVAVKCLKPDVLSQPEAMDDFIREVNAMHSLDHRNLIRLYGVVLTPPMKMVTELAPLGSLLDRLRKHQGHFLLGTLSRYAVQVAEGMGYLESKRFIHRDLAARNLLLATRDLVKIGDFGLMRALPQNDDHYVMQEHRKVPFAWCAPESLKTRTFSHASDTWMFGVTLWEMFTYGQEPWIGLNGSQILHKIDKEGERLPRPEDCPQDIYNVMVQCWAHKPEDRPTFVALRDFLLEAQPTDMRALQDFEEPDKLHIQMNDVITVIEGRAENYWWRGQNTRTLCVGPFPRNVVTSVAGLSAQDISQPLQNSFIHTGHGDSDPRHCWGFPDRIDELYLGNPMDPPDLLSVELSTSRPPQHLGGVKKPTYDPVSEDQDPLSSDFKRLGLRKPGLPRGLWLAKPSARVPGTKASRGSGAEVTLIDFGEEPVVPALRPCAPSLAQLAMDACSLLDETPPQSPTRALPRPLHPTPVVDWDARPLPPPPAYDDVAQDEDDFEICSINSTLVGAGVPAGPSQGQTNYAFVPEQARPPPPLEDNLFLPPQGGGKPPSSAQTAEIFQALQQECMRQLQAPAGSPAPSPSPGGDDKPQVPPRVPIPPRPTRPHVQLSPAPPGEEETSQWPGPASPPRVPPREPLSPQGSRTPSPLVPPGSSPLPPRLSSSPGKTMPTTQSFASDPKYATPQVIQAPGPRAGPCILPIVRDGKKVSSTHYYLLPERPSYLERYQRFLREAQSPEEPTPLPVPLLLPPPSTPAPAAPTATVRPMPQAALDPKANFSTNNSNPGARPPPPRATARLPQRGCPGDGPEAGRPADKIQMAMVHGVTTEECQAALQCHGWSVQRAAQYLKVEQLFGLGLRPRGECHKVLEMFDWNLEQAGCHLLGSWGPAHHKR

Chain of protein kinases (human kinome) (Homo sapiens, UniProt Q9NYV4) (Q9NYV4 whole entry): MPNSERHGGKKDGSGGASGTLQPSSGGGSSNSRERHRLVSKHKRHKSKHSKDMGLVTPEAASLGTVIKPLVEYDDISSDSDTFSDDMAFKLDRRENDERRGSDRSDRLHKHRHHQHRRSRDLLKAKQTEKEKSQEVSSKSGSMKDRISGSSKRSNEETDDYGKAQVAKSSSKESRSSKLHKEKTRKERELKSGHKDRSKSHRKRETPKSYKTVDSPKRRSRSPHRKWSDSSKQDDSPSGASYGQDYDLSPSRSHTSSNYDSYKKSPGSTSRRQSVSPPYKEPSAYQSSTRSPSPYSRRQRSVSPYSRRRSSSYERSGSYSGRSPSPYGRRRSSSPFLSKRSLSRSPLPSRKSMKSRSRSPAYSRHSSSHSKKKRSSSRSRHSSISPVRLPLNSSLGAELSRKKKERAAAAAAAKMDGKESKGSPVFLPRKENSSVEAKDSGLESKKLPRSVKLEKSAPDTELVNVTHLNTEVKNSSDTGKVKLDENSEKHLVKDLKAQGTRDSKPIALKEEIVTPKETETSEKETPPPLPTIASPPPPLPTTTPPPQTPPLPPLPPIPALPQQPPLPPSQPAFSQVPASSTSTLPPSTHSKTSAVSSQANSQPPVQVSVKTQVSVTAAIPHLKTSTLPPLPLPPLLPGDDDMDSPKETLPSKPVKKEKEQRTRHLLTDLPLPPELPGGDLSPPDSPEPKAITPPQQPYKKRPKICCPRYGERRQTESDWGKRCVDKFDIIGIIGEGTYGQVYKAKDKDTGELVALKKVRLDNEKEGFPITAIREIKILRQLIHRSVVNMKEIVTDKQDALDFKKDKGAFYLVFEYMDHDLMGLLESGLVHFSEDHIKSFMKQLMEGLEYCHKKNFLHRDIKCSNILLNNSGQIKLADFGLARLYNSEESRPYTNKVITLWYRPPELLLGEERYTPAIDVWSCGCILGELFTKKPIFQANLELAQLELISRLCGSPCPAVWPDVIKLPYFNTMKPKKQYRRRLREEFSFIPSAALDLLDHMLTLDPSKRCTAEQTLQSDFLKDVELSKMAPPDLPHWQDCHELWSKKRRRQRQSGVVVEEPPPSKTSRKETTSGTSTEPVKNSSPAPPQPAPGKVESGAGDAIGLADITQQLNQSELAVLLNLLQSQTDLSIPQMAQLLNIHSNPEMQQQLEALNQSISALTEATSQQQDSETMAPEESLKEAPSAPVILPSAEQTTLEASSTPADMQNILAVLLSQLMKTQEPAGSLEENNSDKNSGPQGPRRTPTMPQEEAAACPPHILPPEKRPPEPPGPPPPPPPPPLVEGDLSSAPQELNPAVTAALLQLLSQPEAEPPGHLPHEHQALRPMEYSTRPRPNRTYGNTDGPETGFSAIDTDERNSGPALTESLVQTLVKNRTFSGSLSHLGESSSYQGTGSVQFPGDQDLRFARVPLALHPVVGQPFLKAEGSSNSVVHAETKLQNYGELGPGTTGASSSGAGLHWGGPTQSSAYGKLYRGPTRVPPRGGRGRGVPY
Chain of protein kinases (human kinome) (Homo sapiens, UniProt Q14289) (Q14289 whole entry): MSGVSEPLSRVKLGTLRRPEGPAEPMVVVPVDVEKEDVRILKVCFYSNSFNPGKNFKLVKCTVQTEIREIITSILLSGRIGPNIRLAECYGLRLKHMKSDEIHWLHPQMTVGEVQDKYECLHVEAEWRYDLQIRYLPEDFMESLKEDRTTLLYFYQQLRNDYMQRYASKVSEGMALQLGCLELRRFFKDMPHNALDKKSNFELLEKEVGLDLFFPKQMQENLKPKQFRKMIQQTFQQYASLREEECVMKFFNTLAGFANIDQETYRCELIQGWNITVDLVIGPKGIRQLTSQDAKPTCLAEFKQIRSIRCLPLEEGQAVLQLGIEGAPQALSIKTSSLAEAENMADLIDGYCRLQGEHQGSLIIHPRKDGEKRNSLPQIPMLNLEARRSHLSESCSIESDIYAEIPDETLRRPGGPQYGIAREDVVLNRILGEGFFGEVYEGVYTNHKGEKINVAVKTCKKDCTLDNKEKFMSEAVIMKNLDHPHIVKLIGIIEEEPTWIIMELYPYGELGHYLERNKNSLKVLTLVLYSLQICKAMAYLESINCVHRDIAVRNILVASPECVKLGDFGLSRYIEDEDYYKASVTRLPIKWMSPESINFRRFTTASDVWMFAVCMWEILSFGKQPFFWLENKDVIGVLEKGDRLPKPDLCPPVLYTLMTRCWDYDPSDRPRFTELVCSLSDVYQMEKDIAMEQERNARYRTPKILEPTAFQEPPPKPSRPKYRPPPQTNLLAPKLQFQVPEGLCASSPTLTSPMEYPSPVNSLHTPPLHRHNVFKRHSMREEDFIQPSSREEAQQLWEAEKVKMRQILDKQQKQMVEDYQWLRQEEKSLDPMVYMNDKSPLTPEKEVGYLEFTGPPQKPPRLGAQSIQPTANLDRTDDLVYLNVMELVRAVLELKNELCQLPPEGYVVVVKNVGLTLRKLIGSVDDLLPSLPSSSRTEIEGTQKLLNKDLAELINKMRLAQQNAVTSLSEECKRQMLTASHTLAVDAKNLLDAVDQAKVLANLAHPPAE
Chain of protein kinases (human kinome) (Homo sapiens, UniProt P50613) (P50613 whole entry): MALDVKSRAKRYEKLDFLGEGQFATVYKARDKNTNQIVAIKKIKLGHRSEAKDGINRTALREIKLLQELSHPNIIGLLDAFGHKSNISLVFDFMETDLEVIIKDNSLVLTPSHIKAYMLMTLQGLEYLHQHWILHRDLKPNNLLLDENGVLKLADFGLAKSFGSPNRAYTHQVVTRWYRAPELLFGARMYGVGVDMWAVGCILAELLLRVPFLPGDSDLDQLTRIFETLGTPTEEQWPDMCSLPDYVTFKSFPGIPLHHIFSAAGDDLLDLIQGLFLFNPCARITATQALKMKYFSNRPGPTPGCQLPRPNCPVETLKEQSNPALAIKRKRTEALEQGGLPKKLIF
Chain of protein kinases (human kinome) (Homo sapiens, UniProt Q9HBH9) (Q9HBH9 whole entry): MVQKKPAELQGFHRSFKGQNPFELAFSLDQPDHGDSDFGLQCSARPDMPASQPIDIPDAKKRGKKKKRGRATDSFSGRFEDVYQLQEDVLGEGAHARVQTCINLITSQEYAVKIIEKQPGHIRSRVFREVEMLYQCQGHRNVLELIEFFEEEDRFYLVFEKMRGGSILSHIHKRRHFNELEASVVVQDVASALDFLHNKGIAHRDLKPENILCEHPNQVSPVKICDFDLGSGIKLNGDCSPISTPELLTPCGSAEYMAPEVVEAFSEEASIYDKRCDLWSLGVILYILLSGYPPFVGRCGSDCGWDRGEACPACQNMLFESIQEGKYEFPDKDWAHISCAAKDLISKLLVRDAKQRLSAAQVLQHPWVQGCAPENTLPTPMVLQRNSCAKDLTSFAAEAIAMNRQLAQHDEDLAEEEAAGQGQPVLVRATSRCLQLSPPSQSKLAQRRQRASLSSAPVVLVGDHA

CC(C)S(=O)(=O)c1ccccc1Nc1nc(Nc2ccc(N3CCN(CCOCCNC(=O)CNc4cccc5c4C(=O)N(C4CCC(=O)NC4=O)C5=O)CC3)cc2)ncc1Cl (stereo not shown) [SK.3.91]
logFC STK17B (O94768) ([1]; Experiment wp016, 1 uM): −0.327 | logFC STK17B (O94768) ([1]; Experiment wp133, 4 hr): −0.545 | logFC ([1]; experiment wp016, 1 uM): −0.327 | logFC ([1]; experiment wp133, 4 hr): −0.545 | logFC TTK ([2]; experiment wp103): −0.3267 | logFC TTK ([2]; experiment wp107): −0.4781 | logFC TTK ([2]; experiment wp133, 2 hr): −0.3833 | logFC TTK ([2]; experiment wp133, 4 hr): −0.5052 | logFC TTK (P33981) ([2]; experiment wp103): −0.3267 | logFC TTK (P33981) ([2]; experiment wp107): −0.4781 | logFC TTK (P33981) ([2]; experiment wp133, 2 hr): −0.3833 | logFC TTK (P33981) ([2]; experiment wp133, 4 hr): −0.5052 | logFC ([3]; experiment wp016, 1 uM): −0.7032 | logFC STK17A ([3]; experiment wp016, 1 uM): −0.7032 | logFC ([3]; experiment wp103): −0.6201 | logFC STK17A ([3]; experiment wp103): −0.6201 | logFC ([3]; experiment wp107): −0.6984 | logFC STK17A ([3]; experiment wp107): −0.6984 | logFC ([3]; experiment wp133, 4 hr): −0.5458 | logFC STK17A ([3]; experiment wp133, 4 hr): −0.5458 | logFC ([3]; experiment wp172): −0.3963 | logFC STK17A ([3]; experiment wp172): −0.3963 | logFC ([4]; 1 uM): −3.603 | logFC ([4]; 1 hr): −0.8056 and −1.043 | logFC ([4]; 2 hr): −2.027 and −2.105 | logFC PTK2B ([4]; experiment wp016, 1 uM): −3.603 | logFC PTK2B ([4]; experiment wp016): −3.824 | logFC PTK2B ([4]; experiment wp114): −1.885 | logFC PTK2B ([4]; experiment wp133, 1 hr): −0.8056 | logFC PTK2B ([4]; experiment wp133, 2 hr): −2.027 | logFC PTK2B ([4]; experiment wp133, 4 hr): −3.96 | logFC PTK2B ([4]; experiment wp160, 1 hr): −1.043 | logFC PTK2B ([4]; experiment wp160, 2 hr): −2.105 | logFC PTK2B ([4]; experiment wp160, 4 hr): −2.773 | logFC MKNK2 (Q9HBH9-1) ([5]; Experiment wp133, 1 hr): −0.5168 | logFC MKNK2 (Q9HBH9-1) ([5]; Experiment wp133, 2 hr): −0.5303 | logFC MKNK2 (Q9HBH9-1) ([5]; Experiment wp133, 4 hr): −0.8537 | logFC ([5]; experiment wp133, 1 hr): −0.5168 | logFC ([5]; experiment wp133, 2 hr): −0.5303 | logFC ([5]; experiment wp133, 4 hr): −0.8537 | logFC CDK12 ([6]; Accession Q9NYV4-1, experiment wp016): −1.134 | logFC CDK12 ([6]; Accession Q9NYV4-1, experiment wp016, 1 uM): −0.9325 | logFC CDK12 ([6]; Accession Q9NYV4-1, experiment wp172): −1.234 | logFC CDK12 ([6]; CDK12 (Q9NYV4-1), experiment wp016): −1.134 | logFC CDK12 ([6]; CDK12 (Q9NYV4-1), experiment wp016, 1 uM): −0.9325 | logFC CDK12 ([6]; CDK12 (Q9NYV4-1), experiment wp172): −1.234 | logFC CDK7 ([7]; experiment wp016): −0.5236 | logFC CDK7 ([7]; experiment wp105): −0.6307 | logFC CDK7 ([7]; experiment wp107): −0.4632 | logFC CDK7 ([7]; experiment wp114): −0.5255 | logFC CDK7 ([7]; experiment wp172): −1.186 | logFC TNK2 (Q07912-1) ([8]; Experiment wp133, 2 hr): −1.053 | logFC TNK2 (Q07912-1) ([8]; Experiment wp133, 4 hr): −2.261 | logFC TNK2 ([8]; experiment wp133, 2 hr): −1.053 | logFC TNK2 ([8]; experiment wp133, 4 hr): −2.261

Reference: patent US20240269139A1, “COMPOUNDS FOR TARGETED PROTEIN DEGRADATION OF KINASES” (DANA-FARBER CANCER INSTITUTE, INC., priority 2020, published 2024)
